These results are taken from PMC3103432, “Effect of reverse transcriptase inhibitors on LINE-1 and Ty1 reverse transcriptase activities and on LINE-1 retrotransposition” (BMC Biochemistry, 2011).

In one assay the target is T1, Ty1 RT (Saccharomyces cerevisiae, UniProt Q99231).
T1 construct: recombinant Ty1 RT, which required C-terminal residues of integrase for its RT activity; made in house; host or cells: E. coli BL21 (co-transformed with chaperone plasmid pG-Tf2)
T1 sequence (Q99231 1103-1755): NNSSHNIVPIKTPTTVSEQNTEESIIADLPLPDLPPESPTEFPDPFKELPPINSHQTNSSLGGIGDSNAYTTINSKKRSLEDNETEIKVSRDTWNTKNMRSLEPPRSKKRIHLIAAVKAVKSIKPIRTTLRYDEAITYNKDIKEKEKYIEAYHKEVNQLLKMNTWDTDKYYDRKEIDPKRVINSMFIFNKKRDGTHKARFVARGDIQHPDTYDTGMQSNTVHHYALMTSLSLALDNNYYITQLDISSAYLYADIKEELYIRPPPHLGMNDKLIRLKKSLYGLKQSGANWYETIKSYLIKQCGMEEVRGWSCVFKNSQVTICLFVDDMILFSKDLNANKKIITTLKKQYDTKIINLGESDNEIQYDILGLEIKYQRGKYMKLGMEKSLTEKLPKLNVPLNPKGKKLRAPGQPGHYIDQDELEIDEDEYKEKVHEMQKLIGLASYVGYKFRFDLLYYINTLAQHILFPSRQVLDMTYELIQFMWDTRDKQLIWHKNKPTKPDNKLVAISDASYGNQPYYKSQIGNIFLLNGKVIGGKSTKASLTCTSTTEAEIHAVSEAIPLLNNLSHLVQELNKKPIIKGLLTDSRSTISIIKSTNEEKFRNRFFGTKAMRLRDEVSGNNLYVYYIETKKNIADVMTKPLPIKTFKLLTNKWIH
The assay is described as follows: In vitro RT assay with recombinant Ty1 RT. Type of assay: biochemical. Particulars: concentrations as high as 500 μM. As to the method: (§1) The RT assays for HIV-1 and L1 RT were performed in a 20 μl reaction mixtures containing 50 mM Tris-Cl (pH 8.0), 50 mM KCl, 5 mM MgCl2, 10 mM DDT, 0.01 U template/primer, 1 μl [α-^32P] dTTP or [α-^32P] dCTP (final concentration 0.17 μM, 3000 Ci/mmol, 10 mCi/ml) at 37°C for 30 min. Then the mixture was spotted on DE81 paper and washed three times with 2×SSC buffer for a total time of 30 min. The DE81 paper was dried and counted by scintillation counter Beckman LS6000SC. RT assay for Ty1 RT was done under the same buffer condition except that 20 mM MgCl2 was used and the reaction mixture was incubated at room temperature. In each reaction the amounts of L1, HIV-1 and Ty1 RTs with the same specific activity were added. To test the inhibition of the RT inhibitors, 1 μl inhibitor was included in the mixture to obtain the desired concentration. […] All assays were done at least in triplicate.

Assay [1] concerns ORFeus-Hs (synthetic human L1) retrotransposition in HeLa cells. The assay is described as follows: Cell-based L1 retrotransposition assay, ORFeus-Hs. As for the experimental part:
The cell-based retrotransposition assay was conducted as described. HeLa cells (a gift from Dr. John Moran, University of Michigan) were seeded in 6-well dishes in DMEM (2×10^5 cells/well). The next day cells were transfected with Fugene 6 according to the manufacturer's manual. Each transfection consisted of 96 μl Opti-Mem, 1 μg pWA195 DNA and 3 μl Fugene 6. Sixteen hours after transfection, the cells were trypsinized and transferred to a 6 cm plate in DMEM with 2.5 μg/ml puromycin and the RT inhibitors. Three days after puromycin selection, dead cells were removed and puromycin resistant cells were trypsinized and counted with a hemocytometer. The puromycin resistant cells were plated on a 10 cm plate (1×10^4 cells/plate) in 10 ml DMEM with 500 μg/ml G418. The RT inhibitors were added to the same concentration as in the puromycin selection. […] Two weeks later, G418 resistant cells were fixed to the plate and stained with 0.1% crystal violet. The number of G418 resistant colonies was counted to calculate retrotransposition frequency. Six independent assays were done for each RT inhibitor.

In assay [2] the target is T2, human L1 reverse transcriptase (MBP-RT fusion) (Homo sapiens, UniProt O00370).
T2 construct: Human L1 ORF2 amino acid 238-1061 was inserted behind MBP gene in frame; made in house; host or cells: E. coli BL21
In words: In vitro (cell-free) RT assay and kinetic analysis with recombinant L1 RT. Type of assay: biochemical. Conditions: concentrations as high as 500 μM. As to the method:
as §1
The kinetic analysis was performed under the same conditions described above but with various concentrations of substrates and inhibitors as indicated in the text. Poly (rA)-oligo (dT)12-18 and [α-^32P] dTTP were used to analyze AZTTP and d4TTP. Poly (rI)-oligo (dC)12-18 and [α-^32P] dCTP were used to assay ddCTP and 3TCTP.

Assay [3] concerns AMV RT, MLV RT, human DNA polymerases α, β, γ and Klenow fragment. Conditions: cited from earlier work.
Assay [4] has as its system HIV-1 mutants (substitutions at positions 103, 106, 181, 188 and 190). Further details: method as in PMID 17370068. Particulars: cited from earlier work.

On to `Cc1ccnc2c1NC(=O)c1cccnc1N2C1CC1` [NVP, nevirapine], for which the “inhibition of Ty1 RT activity” value on Ty1 RT is on record as “no inhibition”. Moreover, the activity at 5 µM in assay [1] (Homo sapiens, HeLa, 5 μM, control = 1.0, normalized to cell viability, read-out: Relative retrotransposition efficiency) worked out at 108 ± 13%. The activity at 50 µM in assay [1] (Homo sapiens, HeLa, 50 μM, control = 1.0, normalized to cell viability, read-out: Relative retrotransposition efficiency) is 89 ± 3%. In addition, the activity at 200 µM in assay [1] (Homo sapiens, HeLa, 200 μM, control = 1.0, normalized to cell viability, read-out: Relative retrotransposition efficiency) was 89%. In addition, the activity at 400 µM in assay [1] (Homo sapiens, HeLa, 400 μM, control = 1.0, normalized to cell viability, read-out: Relative retrotransposition efficiency) was found to be 87 ± 3%. Moreover, the “decrease of L1 transposition frequency” value in assay [1] (at all tested concentrations) is listed as ~ 10%. For the same molecule, the “inhibition of L1 RT activity” value is “no inhibition” in assay [2] and “no effect” in assay [2] (listed as nevirapine). Besides, in assay [3], the “activity against a variety of polymerases” value is “inactive”. Also, in assay [4], the “reduction of susceptibility in HIV-1 mutants” value is “more than 50 fold”.
